For data set [1], the system named is aspergillus, penicillum, fusarium, and candida in nasal mucus. The data set can be described thus: kill-off time in vitro of fungi in nasal mucus. The conditions noted are these: 1% NCT-Na added to nasal mucus (diluted 1:10) of rhinosinusitis. It is filed as cell-based. The method, then: In the case of rhinosinusitis various species of fungus were found in the nasal mucus, e.g., aspergillus, penicillum, fusarium, and candida. If (diluted 1:10) 1% NCT-Na is added to this nasal mucus, then the kill-off time in vitro is less than 30 minutes.

Data set [2] is described as follows: tolerability in vivo at various application sites. The conditions noted are these: eye, middle ear, outer ear, skin ulcers, oral cavity, bladder.
Data set [3] in a line: treatment of rhinosinusitis patients by nasal catheter rinsing. The class given is in vivo, human. An excerpt: Treatments with traditional fungicidal agents have on the contrary previously led to no success.
The importance of the agent lies, among other things, in the fact that, in the case of the mucus tissue polyps occurring in rhinosinusitis, regression could be observed so that the previously successful standard therapy, namely operative removal, can be avoided by the use of the agent according to the invention.
A person suffers from chronic rhinosinusitis with clear swelling of the mucus membranes in both maxillary sinuses with retention of secretion on the left, in ethmoid bone cells, sphenoidal sinus, and in the left frontal sinus. Labored nasal respiration. For 2 1/2 months increasing headaches at the back of the head, no improvement on antibiotic therapy.
The treatment with 1% NCT-Na took place over a total of 4 weeks, 3 times weekly, and included 12 treatments in all. Each time a 10-ml NCT-Na solution was applied by means of a nasal catheter (YAMIK) over a period of time of 12 minutes. Thereafter the rinsing solution was suctioned off.
patient suffered from chronic rhinosinusitis for ca. 1 year with swelling of the mucus membranes and increased secretion in the nasal cavity and all its adjacent cavities, strong polyposis and loss of the sense of smell.

Data set [4] can be described thus: treatment of patients with otitis externa with saturated strips. The conditions noted are these: changed daily. It is filed as in vivo, human. The method, then:
A group of 10 patients who suffered from otitis externa with affliction of the auditory canal were treated. For treatment, 12 cm long strips (tampons by Rauscher) were placed into the external auditory canal. The test group (5 persons) was treated with strips which were saturated with 1-ml 1% NCT-Na, the control group (5 persons) with strips which were saturated with 1-ml otosporin (content per ml: 10,000 IU polymyxin B sulfate, 3.5 mg neomycin as neomycin sulfate, 10 mg hydrocortisone).
The treatment was done over 5 days. The strips were changed daily.

Data set [5] in a line: treatment of patients with ulcus cruris with saturated swabs. The class given is in vivo, human. As to conditions: Example 4, 1% NCT-Na versus 1% chloramine T control group. The method, then:
A group of 25 patients who suffered from ulcus cruris were treated. The treatment was done with swabs which were saturated with an aqueous solution of 1% NCT-Na (test group, 14 patients) or 1% chloramine T (control group, 11 patients) and applied directly to the ulcers and left there. The treatment was done over 5-14 days. The swabs were changed twice daily.

From patent publication US20090182055A1, “FUNGICIDAL AGENT CONTAINING N-CHLOROTAURINE AND USE THEREOF” (priority 2000, published 2009) come the findings set out here.

Each structure is given as a SMILES string.

For `O=S(=O)(O)CCNCl` [NCT-Na, N-chlorotaurine], the “kill-off time in vitro” value in data set [1] is reported as “less than 30 minutes”. Moreover, the tolerability in vivo entry in data set [2] was “tolerated outstandingly”. Also, in data set [3] (Example 1, 1% NCT-Na, after 7 treatments), the formation of secretion entry is “strong decline”. In addition, the nasal respiration entry in data set [3] (Example 1, 1% NCT-Na, after 9 treatments) was “clearly improved”. The pains result in data set [3] (Example 1, person, 1% NCT-Na 10 ml, 3 times weekly, after the second application) is “complete remission of the pains”. Besides, the polyposis nasi entry in data set [3] (Example 2, 1% NCT-Na, at the end of the treatments (12 treatments, 4 weeks)) is reported as “unambiguous regression”. Moreover, the sense of smell entry in data set [3] (Example 2, patient, 1% NCT-Na 10 ml, 3 times weekly, after the sixth application) is given as “substantial restoration”. Also, the “symptoms of rhinosinusitis (pains, head pressure, loss of sense of smell, increased secretion, polyp formation)” value in data set [3] (trials with rhinosinusitis patients, treatment of internal nasal surfaces with NCT-Na solution) was “improved substantially”. Further, the tolerability result in data set [4] (Example 3, strips saturated with 1 ml 1% NCT-Na in external auditory canal, 5 days) is listed as “well tolerated”. Moreover, the “period until healing, on average” value in data set [4] (Example 3, strips saturated with 1 ml test solution) is 3 days. Moreover, in data set [5], the “pains after application of the solution” value is recorded as “significantly less pains”.
